Reference: patent US8841291B2, “Selective hydroxamic acid based MMP-12 and MMP-13 inhibitors” (Novartis AG, priority 2008, dated 2014)
Where two headings read alike, the source gives them in different places.

Experiments:
Gelatinase (MMP-2) = biological target: T1, Gelatinase (MMP-2) (Homo sapiens, UniProt P08253); test: Gelatinase (MMP-2) inhibitory activity, fluorogenic peptide substrate assay; assay type: biochemical
T1 sequence (P08253 110-660): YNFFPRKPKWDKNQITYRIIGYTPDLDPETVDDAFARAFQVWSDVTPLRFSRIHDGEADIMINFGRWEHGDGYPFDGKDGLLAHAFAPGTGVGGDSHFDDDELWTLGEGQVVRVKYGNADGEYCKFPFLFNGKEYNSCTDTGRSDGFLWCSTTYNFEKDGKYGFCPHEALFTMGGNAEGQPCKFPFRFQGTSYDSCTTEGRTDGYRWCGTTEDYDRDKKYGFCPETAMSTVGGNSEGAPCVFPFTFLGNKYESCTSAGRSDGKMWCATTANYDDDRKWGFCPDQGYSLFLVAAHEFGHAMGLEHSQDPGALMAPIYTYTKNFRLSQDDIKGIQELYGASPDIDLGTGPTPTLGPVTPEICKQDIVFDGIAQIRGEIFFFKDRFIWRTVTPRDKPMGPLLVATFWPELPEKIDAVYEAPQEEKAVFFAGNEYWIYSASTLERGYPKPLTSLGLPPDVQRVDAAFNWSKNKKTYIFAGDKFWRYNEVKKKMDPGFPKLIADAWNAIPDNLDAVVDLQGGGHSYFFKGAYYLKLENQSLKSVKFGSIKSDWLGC
Description: (§1) Stock solutions of inhibitors (0.03 mM-3 mM) are also prepared in DMSO. The inhibitors are diluted into the assay solutions, and the controls use an equal volume of DMSO so that the final DMSO concentration from the inhibitor and substrate dilutions in all assays is 1.0%. Assays are performed in an assay buffer (100 mM sodium chloride, 10 μM ZnCl. Sub 2, 10 mM CaCl2, 100 mM Tris-Cl pH7.5, 0.05% Brij-35), containing 1.0% DMSO from the substrate and inhibitor additions. The substrate concentration used in the assays is 5 μM. The assays are carried out at 20-25° C. […] The reaction mixtures are added in duplicate into appropriate wells of a 384-well assay plate. The reaction mixtures are preincubated with the inhibitors for 60 minutes The reactions are started by the addition of MMP substrate, and the fluorescence intensity changes are measured after 60 minutes The apparent enzyme activity in the presence of an inhibitor is then compared with that in the absence of any inhibitor to determine the inhibition effect of the inhibitor.

Collagenase-3 (MMP-13) = Collagenase-3 (MMP-13) (Homo sapiens, UniProt P45452); test: Collagenase-3 (MMP-13) inhibitory activity, fluorogenic peptide substrate assay; assay type: biochemical
Description: as §1
Collagenase-3 (MMP-13) inhibitory activity is determined as described above. Recombinant pro-collagenase-3 is activated with 1 mM APMA, and stored in the assay buffer after extensive dialysis in the assay buffer.

[1] = substrate 5 μM, 60 min preincubation, 20-25° C., read-out: MMP2 IC50
[2] = recombinant pro-collagenase-3 activated with 1 mM APMA, read-out: MMP13 IC50

Compound	IC50 (Gelatinase (MMP-2); [1])	IC50 (Collagenase-3 (MMP-13); [2])	IC50 (Gelatinase (MMP-2); read-out: IC50 (Gelatinase (MMP-2) inhibitory activity))	IC50 (Collagenase-3 (MMP-13); read-out: IC50 (Collagenase-3 (MMP-13) inhibitory activity))
C=CCCN([C@H](CC=C)C(=O)NO)S(=O)(=O)c1ccc2ccccc2c1 [Example 4, (R)-2-[But-3-enyl-(naphthalene-2-sulfonyl)-amino]-pent-4-enoic acid hydroxyamide]	50.7 nM	0.7 nM		
CC(C)CCN([C@@H](C(=O)NO)C(C)C)S(=O)(=O)c1nc2ccccc2s1 [Example 98, (R)-2-[(Benzothiazole-2-sulfonyl)-(3-methyl-butyl)-amino]-N-hydroxy-3-methyl-butyramide]	713 nM	63 nM		
O=C(NO)[C@H]1[C@@H]2CCCC[C@@H](C2)N1S(=O)(=O)c1ccc2ccccc2c1 [Example 83, 7-(Naphthalene-2-sulfonyl)-7-aza-bicyclo[4.2.1]nonane-8-carboxylic acid hydroxyamide]	770 nM	135 nM		
CC(C)CCN([C@@H](C(=O)NO)C(C)C)S(=O)(=O)c1ccc2cc(N)ccc2c1 [Example 51, 2-[(6-Amino-naphthalene-2-sulfonyl)-(3-methyl-butyl)-amino]-N-hydroxy-3-methyl-butyramide]	1130 nM	90 nM		
CC(C)[C@H](C(=O)NO)N(CCOc1ccc(F)cc1)S(=O)(=O)c1ccc2ccccc2c1 [Example 41, N-(2-(4-fluorophenoxy)ethyl)-N-(naphthalene-2-sulfonyl)-D-valine hydroxamic acid]	1130 nM	38.7 nM		
CC(C)(C)[C@@H](NS(=O)(=O)c1ccc2ncccc2c1)C(=O)NO [Example 92, (R)—N-Hydroxy-3,3-dimethyl-2-(quinoline-6-sulfonylamino)-butyramide]	765 nM	225 nM		
CCOc1ccc2ccc(S(=O)(=O)N(Cc3cccnc3)[C@@H](C(=O)NO)C(C)C)cc2c1 [Example 68, 2-[(7-Ethoxy-naphthalene-2-sulfonyl)-pyridin-3-ylmethyl-amino]-N-hydroxy-3-methyl-butyramide]	976 nM	28.7 nM		
COc1ccc(S(=O)(=O)N2CC=CC[C@@H]2C(=O)NO)cc1OC [Example 97, (R)-1-(3,4-Dimethoxy-benzenesulfonyl)-1,2,3,6-tetrahydro-pyridine-2-carboxylic acid hydroxyamide]		10200 nM		
CC(C)C[C@@H](NS(=O)(=O)c1ccc2ccccc2c1)C(=O)NO [Example 5, 4-Methyl-2-(naphthalene-2-sulfonylamino)-pentanoic acid hydroxyamide]	57.5 nM	40.5 nM		
CC1(C)SCCN(S(=O)(=O)c2ccc3ccccc3c2)[C@H]1C(=O)NO [Example 90]	50.7 nM	< 0.3 nM		
O=C(NO)C1(NS(=O)(=O)c2ccc3ccccc3c2)CCCCC1 [Example 19, 1-(Naphthalene-2-sulfonylamino)-cyclohexanecarboxylic acid hydroxyamide]	451 nM	727 nM		
C=CCN([C@@H](C(=O)NO)C(C)C)S(=O)(=O)c1ccc2ccccc2c1 [Example 24, (R)-2-[Allyl-(naphthalene-2-sulfonyl)-amino]-N-hydroxy-3-methyl-butyramide]	90.4 nM	3.4 nM		
CC(C)[C@H](C(=O)NO)N(CCCc1ccccc1)S(=O)(=O)c1ccc2ccc(N)cc2c1 [Example 38, 2-[(7-Amino-naphthalene-2-sulfonyl)-(3-phenyl-propyl)-amino]-N-hydroxy-3-methyl-butyramide]	> 300 nM	190 nM		
O=C(NO)[C@H]1CCCCN1S(=O)(=O)c1cnc2ccccc2c1 [Example 50, (R)-1-(Quinoline-3-sulfonyl)-piperidine-2-carboxylic acid hydroxyamide]	975 nM	132 nM		
Cc1ccc(C)c(OCCN([C@@H](C(=O)NO)C(C)C)S(=O)(=O)c2ccc3ccccc3c2)c1C [Example 75, N-(2-(2,3,6-trimethylphenoxy)ethyl)-N-(naphthalene-2-sulfonyl)-D-valine hydroxamic acid]	3110 nM	67.3 nM		
CC(=O)Nc1ccc2cc(S(=O)(=O)N(CCC(C)C)[C@@H](C(=O)NO)C(C)C)ccc2c1 [Example 55, 2-[(6-Acetylamino-naphthalene-2-sulfonyl)-(3-methyl-butyl)-amino]-N-hydroxy-3-methyl-butyramide]	81.3 nM	3.1 nM		

Compound	IC50 (Gelatinase (MMP-2); [1])	IC50 (Collagenase-3 (MMP-13); [2])	IC50 (Gelatinase (MMP-2); read-out: IC50 (Gelatinase (MMP-2) inhibitory activity))	IC50 (Collagenase-3 (MMP-13); read-out: IC50 (Collagenase-3 (MMP-13) inhibitory activity))
O=C(NO)C(NS(=O)(=O)c1ccc2ccccc2c1)C1CCOCC1 (centres unmarked) [Example 11, N-Hydroxy-2-(naphthalene-2-sulfonylamino)-2-(tetrahydro-pyran-4-yl)-acetamide]	92.7 nM	50.9 nM		
CC(=O)Nc1ccc2ccc(S(=O)(=O)N(CCC(C)C)[C@@H](C(=O)NO)C(C)C)cc2c1 [Example 61, 2-[(7-Acetylamino-naphthalene-2-sulfonyl)-(3-methyl-butyl)-amino]-N-hydroxy-3-methyl-butyramide]	22.8 nM	0.5 nM		
CC(C)(C)OC(=O)N1CCC([C@@H](NS(=O)(=O)c2ccc3ccccc3c2)C(=O)NO)CC1 [Example 74, 4-[Hydroxycarbamoyl-(naphthalene-2-sulfonylamino)-methyl]-piperidine-1-carboxylic acid tert-butyl ester]	0.4 nM	0.4 nM		
CC(C)CCN([C@@H](C(=O)NO)C1CCN(C(=O)OC(C)(C)C)CC1)S(=O)(=O)c1ccc2ccccc2c1 [Example 82, 4-{Hydroxycarbamoyl-[(3-methyl-butyl)-(naphthalene-2-sulfonyl)-amino]-methyl}-piperidine-1-carboxylic acid tert-butyl ester]	< 0.3 nM	< 0.3 nM		
CC(C)CCN([C@H](Cc1ccc(OCc2ccccc2)cc1)C(=O)NO)S(=O)(=O)c1ccc2ccccc2c1 [Example 25, (R)-3-(4-Benzyloxy-phenyl)-N-hydroxy-2-[(3-methyl-butyl)-(naphthalene-2-sulfonyl)-amino]-propionamide]	1960 nM	44.1 nM		
O=C(NO)[C@H]1CC=CCN1S(=O)(=O)c1ccc(N2CCOCC2)nc1 [Example 96, (R)-1-(6-Morpholin-4-yl-pyridine-3-sulfonyl)-1,2,3,6-tetrahydro-pyridine-2-carboxylic acid hydroxyamide]		326 nM		
CC(C)CCN([C@@H](C(=O)NO)C(C)C)S(=O)(=O)c1ccc2ccccc2c1Cl [Example 80, 2-[(1-Chloro-naphthalene-2-sulfonyl)-(3-methyl-butyl)-amino]-N-hydroxy-3-methyl-butyramide]	779 nM	118 nM	55 nM	~113 nM
Cc1ccc(Nc2ccc3cc(S(=O)(=O)N(Cc4ccccc4)[C@@H](C(=O)NO)C(C)C)ccc3c2)cc1 [Example 43, 2-[Benzyl-(6-p-tolylamino-naphthalene-2-sulfonyl)-amino]-N-hydroxy-3-methyl-butyramide]	> 300 nM	118 nM		
CC(C)CCOc1ccc2ccc(S(=O)(=O)N(CCC(C)C)[C@@H](C(=O)NO)C(C)C)cc2c1 [Example 86, (R)—N-Hydroxy-3-methyl-2-[[7-(3-methyl-butoxy)-naphthalene-2-sulfonyl]-(3-methyl-butyl)-amino]-butyramide]	> 10000 nM	3250 nM		
O=C(NO)[C@H]1CC=CCN1S(=O)(=O)c1cnc2ccccc2c1 [Example 72, (R)-1-(Quinoline-3-sulfonyl)-1,2,3,6-tetrahydro-pyridine-2-carboxylic acid hydroxyamide]	853 nM	95.7 nM		
CC1=CC[C@H](C(=O)NO)N(S(=O)(=O)c2ccc3ccccc3c2)C1 [Example 60, (R)-5-Methyl-1-(naphthalene-2-sulfonyl)-1,2,3,6-tetrahydro-pyridine-2-carboxylic acid hydroxyamide]	12.5 nM	0.9 nM		
CN1CCOc2cc(S(=O)(=O)N3CC=CC[C@@H]3C(=O)NO)ccc21 [Example 94, (R)-1-(4-Methyl-3,4-dihydro-2H-benzo[1,4]oxazine-7-sulfonyl)-1,2,3,6-tetrahydro-pyridine-2-carboxylic acid hydroxyamide]		37 nM		
C#CC[C@H](C(=O)NO)N(CC=C)S(=O)(=O)c1ccc2ccccc2c1 [Example 8, (R)-2-[Allyl-(naphthalene-2-sulfonyl)-amino]-pent-4-ynoic acid hydroxyamide]	125 nM	3.5 nM		
CSCC[C@H](C(=O)NO)N(CCC(C)C)S(=O)(=O)c1ccc2ccccc2c1 [Example 20, (R)—N-Hydroxy-2-[(3-methyl-butyl)-(naphthalene-2-sulfonyl)-amino]-4-methylsulfanyl-butyramide]	12.1 nM	0.3 nM		
C=CC[C@@H](NS(=O)(=O)c1ccc2ccccc2c1)C(=O)NO [Example 3, (R)-2-(Naphthalene-2-sulfonylamino)-pent-4-enoic acid hydroxyamide]	22.2 nM	35.6 nM		
(R)-1-(2,3,4a,8a-Tetrahydro-benzo[1,4]dioxine-6-sulfonyl)-1,2,3,6-tetrahydro-pyridine-2-carboxylic acid hydroxyamide [Example 95]		2.6 nM		
